These results are taken from ChEMBL document CHEMBL3991950, “Imidazolidinedione derivatives” (2011).

Data set [1] addresses T1, Voltage-gated potassium channel KCNC2 (Homo sapiens) (UniProt Q96PR1).
T1 sequence (whole entry): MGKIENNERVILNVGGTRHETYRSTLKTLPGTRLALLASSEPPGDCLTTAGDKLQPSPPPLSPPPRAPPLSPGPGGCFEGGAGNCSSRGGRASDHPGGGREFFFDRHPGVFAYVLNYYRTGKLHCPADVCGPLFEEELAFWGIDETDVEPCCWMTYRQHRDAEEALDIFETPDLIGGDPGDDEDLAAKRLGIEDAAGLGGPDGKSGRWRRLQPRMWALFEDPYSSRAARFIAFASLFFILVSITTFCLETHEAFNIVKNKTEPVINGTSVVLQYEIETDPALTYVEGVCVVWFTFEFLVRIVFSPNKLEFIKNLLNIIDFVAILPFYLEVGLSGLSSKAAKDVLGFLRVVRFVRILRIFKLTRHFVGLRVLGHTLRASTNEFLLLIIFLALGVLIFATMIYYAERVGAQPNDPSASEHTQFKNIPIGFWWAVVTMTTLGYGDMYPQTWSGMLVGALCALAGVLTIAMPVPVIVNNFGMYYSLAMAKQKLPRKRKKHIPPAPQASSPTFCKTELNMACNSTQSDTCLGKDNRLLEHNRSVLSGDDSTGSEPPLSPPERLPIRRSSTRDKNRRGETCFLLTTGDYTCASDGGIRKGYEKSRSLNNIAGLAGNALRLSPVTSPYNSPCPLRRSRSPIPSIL
The data set is described as follows: Negative modulation activity at human recombinant Kv3.2 expressed in CHOK1 cells assessed as effect on activation time at -70 mV holding potential incubated for 3 mins by lonWorks Quattro system based electrophysiology assay. It counts as cell-based.

The target of data set [2] is T1, Voltage-gated potassium channel KCNC2 (Homo sapiens). The data set is described as follows: Modulation activity at human recombinant Kv3.2 expressed in CHOK1 cells assessed as potentiation of whole-cell currents by measuring activation time at 0.2 uM at -70 mV holding potential incubated for 3 mins by lonWorks Quattro system based electrophysiology assay.
Data set [3] has as its system Callithrix jacchus. Put plainly: Effect on animal postures in marmoset at 1 and 3 mg/kg, po dosed 2 hrs before test and measured over 2 mins post dose. In kind it is ADME, organism-based. As to conditions: in vivo.
Data set [4] deals with Rattus norvegicus. Put plainly: Increase in threshold for tonic hindlimb extensor seizures in CD rat model of electroshock seizure at 60 mg/kg, po relative to untreated control. In kind it is functional.
The target of data set [5] is T1, Voltage-gated potassium channel KCNC2 (Homo sapiens). Put plainly: Positive modulation activity at human recombinant Kv3.2 expressed in CHOK1 cells assessed as effect on activation time at -70 mV holding potential incubated for 3 mins by lonWorks Quattro system based electrophysiology assay (reference value: 7.1 ms). It counts as cell-based.
Data set [6] relates to Mus musculus. The data set is described as follows: Reduction in amphetamine-induced hyperactivity in CD1 mouse assessed as amphetamine-induced increase in total distance travelled at 10 mg/kg, po pretreated with compound 30 mins before amphetamine challenge and measured over 60 mins post amphetamine challenge (reference value: 16304 +/- 3309 cm). In kind it is functional.

The subject of data set [7] is Mus musculus. The data set is described as follows: Reduction in amphetamine-induced hyperactivity in CD1 mouse assessed as reduction in amphetamine-induced increase in total distance travelled at 30 mg/kg, po pretreated with compound 30 mins before amphetamine challenge and measured over 60 mins post amphetamine challenge. It counts as functional, organism-based.
The species named for data set [8] is Mus musculus. Put plainly: Modulation activity at Kv3 channel-mediated firing activity of parvalbumin-positive interneurons isolated form somatosensory cortex of transgenic [CB6-Tg (Gad1-EGFP) G42Zjh/J] mouse assessed as reduction in 0.5 mM TEA-induced action potential half-width at 10 uM incubated for 1 hr at resting potential of -80 mV by electrophysiology assay.

Data set [9] deals with T2, Voltage-gated potassium channel KCNC1 (Mus musculus) (UniProt P15388).
T2 sequence (whole entry): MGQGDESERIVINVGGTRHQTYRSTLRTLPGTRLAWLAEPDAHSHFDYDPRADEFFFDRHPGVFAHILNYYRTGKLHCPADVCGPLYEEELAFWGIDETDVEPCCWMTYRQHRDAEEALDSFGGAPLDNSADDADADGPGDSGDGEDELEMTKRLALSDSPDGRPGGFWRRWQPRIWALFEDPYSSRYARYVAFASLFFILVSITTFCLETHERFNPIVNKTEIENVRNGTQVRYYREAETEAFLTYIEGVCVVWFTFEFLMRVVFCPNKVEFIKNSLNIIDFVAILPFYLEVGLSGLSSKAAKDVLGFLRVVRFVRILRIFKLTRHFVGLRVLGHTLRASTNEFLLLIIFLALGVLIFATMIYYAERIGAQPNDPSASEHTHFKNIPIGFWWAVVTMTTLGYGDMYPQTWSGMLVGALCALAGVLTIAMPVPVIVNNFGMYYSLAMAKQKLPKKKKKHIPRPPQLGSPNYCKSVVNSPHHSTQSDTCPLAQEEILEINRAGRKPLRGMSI
The data set is described as follows: Modulation activity at Kv3.1 channel-mediated potassium currents in neurons isolated from medial nucleus of trapezoid body in CBA/Ca mouse assessed as reversal of TEA-induced reduction in voltage steps to +40 mV-evoked amplitude of outward high voltage-activated potassium currents at 10 uM at resting potential of -60 mV incubated for 5 mins by electrophysiology assay.

The target of data set [10] is T1, Voltage-gated potassium channel KCNC2 (Homo sapiens). The data set is described as follows: Modulation activity at human recombinant Kv3.2 expressed in CHOK1 cells assessed as potentiation of whole-cell currents at 25 uM at -70 mV holding potential incubated for 3 mins by lonWorks Quattro system based electrophysiology assay.
Data set [11] has as its system Callithrix jacchus. Put plainly: Sedative or hypnotic effect in marmoset assessed as reduction in number of animal jumps at 1 and 3 mg/kg, po dosed 2 hrs before test and measured over 2 mins post dose. In kind it is functional, organism-based.
The test system of data set [12] is Rattus norvegicus. Put plainly: Increase in threshold for tonic hindlimb extensor seizures in CD rat model of electroshock seizure at 30 mg/kg, po relative to untreated control. It counts as functional.
Data set [13] addresses T1, Voltage-gated potassium channel KCNC2 (Homo sapiens). The data set is described as follows: Modulation activity at human recombinant Kv3.2 expressed in CHOK1 cells assessed as potentiation of whole-cell currents at 6.3 uM at -70 mV holding potential incubated for 3 mins by lonWorks Quattro system based electrophysiology assay.
For data set [14], the system named is Mus musculus. The data set is described as follows: Reduction in amphetamine-induced hyperactivity in CD1 mouse assessed as reduction in amphetamine-induced increase in total distance travelled at 60 mg/kg, po pretreated with compound 30 mins before amphetamine challenge and measured over 60 mins post amphetamine challenge. It counts as functional, organism-based.

Data set [15] is filed under the species Mus musculus. Put plainly: Modulation activity at Kv3 channel-mediated firing activity of parvalbumin-positive interneurons isolated form somatosensory cortex of transgenic [CB6-Tg (Gad1-EGFP) G42Zjh/J] mouse assessed as reduction in 0.5 mM TEA-induced action potential half-width at 1 uM incubated for 1 hr at resting potential of -80 mV by electrophysiology assay.

Data set [16] concerns the target T1, Voltage-gated potassium channel KCNC2 (Homo sapiens). The data set is described as follows: Modulation activity at human recombinant Kv3.2 expressed in CHOK1 cells assessed as potentiation of whole-cell currents by measuring activation time at 6.25 uM at -70 mV holding potential incubated for 3 mins by lonWorks Quattro system based electrophysiology assay (reference value: 7.1 ms).

In data set [17] the test system is Mus musculus. Put plainly: Reduction in amphetamine-induced hyperactivity in CD1 mouse assessed as amphetamine-induced increase in total distance travelled at 3 mg/kg, ip pretreated with compound 30 mins before amphetamine challenge and measured over 60 mins post amphetamine challenge (reference value: 16304 +/- 3309 cm). It counts as functional.
The subject of data set [18] is Mus musculus. The data set is described as follows: Reduction in amphetamine-induced hyperactivity in CD1 mouse assessed as reduction in amphetamine-induced increase in total distance travelled at 3 mg/kg, ip pretreated with compound 30 mins before amphetamine challenge and measured over 60 mins post amphetamine challenge. It counts as functional, organism-based.

Data set [19] has as its system Rattus norvegicus. The data set is described as follows: Increase in threshold for tonic hindlimb extensor seizures in CD rat model of electroshock seizure at 300 mg/kg, po relative to untreated control. In kind it is functional.
Data set [20] addresses T1, Voltage-gated potassium channel KCNC2 (Homo sapiens). The data set is described as follows: Modulation activity at human recombinant Kv3.2 expressed in CHOK1 cells assessed as potentiation of whole-cell currents by measuring activation time at 3.1 uM at -70 mV holding potential incubated for 3 mins by lonWorks Quattro system based electrophysiology assay (reference value: 7.1 ms).

Data set [21] has the same target. Put plainly: Modulation activity at human recombinant Kv3.2 expressed in CHOK1 cells assessed as potentiation of whole-cell currents by measuring activation time at 0.4 uM at -70 mV holding potential incubated for 3 mins by lonWorks Quattro system based electrophysiology assay (reference value: 7.1 ms).
Data set [22] shares this target. The data set is described as follows: Modulation activity at human recombinant Kv3.2 expressed in CHOK1 cells assessed as potentiation of whole-cell currents by measuring activation time at 0.8 uM at -70 mV holding potential incubated for 3 mins by lonWorks Quattro system based electrophysiology assay (reference value: 7.1 ms).
Data set [23] relates to Callithrix jacchus. The data set is described as follows: Antipsychotic-like activity in common marmoset assessed as induction of increase in theta band power at 3 mg/kg, po measured at 60 mins by electroencephalography analysis. It counts as functional, organism-based.
In data set [24] the test system is Callithrix jacchus. Put plainly: Antipsychotic-like activity in common marmoset assessed as induction of increase in absolute power in delta band at 3 mg/kg, po measured between 30 and 120 mins by electroencephalography analysis. It counts as functional, organism-based.
In data set [25] the test system is Callithrix jacchus. Put plainly: Antipsychotic-like activity in common marmoset assessed as induction of reduction in power in beta band at 1 mg/kg, po measured at 30 mins by electroencephalography analysis. In kind it is functional, organism-based.
Data set [26] concerns Callithrix jacchus. Put plainly: Antipsychotic-like activity in common marmoset assessed as induction of increase in absolute power in delta band at 1 mg/kg, po measured at 30 mins by electroencephalography analysis. It counts as functional, organism-based.
Data set [27] concerns Callithrix jacchus. Put plainly: Effect on absolute power in alpha band in common marmoset at 0.3 to 3 mg/kg, po by electroencephalography analysis. In kind it is ADME, organism-based. To be noted: in vivo.
Data set [28] concerns the target T1, Voltage-gated potassium channel KCNC2 (Homo sapiens). The data set is described as follows: Modulation activity at human recombinant Kv3.2 expressed in CHOK1 cells assessed as potentiation of whole-cell currents by measuring activation time at 12.5 uM at -70 mV holding potential incubated for 3 mins by lonWorks Quattro system based electrophysiology assay (reference value: 7.1 ms).

Activity calls are given as the source filed them.

Broadly, the inhibition is the percentage by which the read-out fell short of the control. Consider `CC[C@H]1NC(=O)N(c2ccc(Oc3ccc(C#N)cc3C(C)(C)C)nc2)C1=O`, for which the inhibition result in data set [1] was “Active”. Further, the TIME in [2] was found to be 6.39e-06 h.
Take `CC[C@H]1NC(=O)N(c2ccc(Oc3ccc(C)c(OC)c3)nc2)C1=O`: the Activity entry was “Non-Toxic” in the data set with Callithrix jacchus [3], 218% in the data set with Rattus norvegicus [4], 15267 cm with Mus musculus [6] and 91% in the data set with Rattus norvegicus [12]. Besides, the result (in data set [5]; with Mus musculus [7]; in data set [9]; in data set [10]; in the data set on Callithrix jacchus [11]; in [13]) was Active. For the same compound, in the data set on Mus musculus [14], the outcome was Active. The inhibition was determined as 36% in the data set listed under Mus musculus [8] and 24% in the data set listed under Mus musculus [15]. In addition, the TIME in [16] was found to be 2.75e-06 h.
In the case of `CN1CCN(C2=Nc3cc(Cl)ccc3Nc3ccccc32)CC1` [CLOZAPINE], the Activity in the data set with Mus musculus [17] turned out to be 932 cm. In addition, the outcome in the data set with Mus musculus [18] was Active.
As to `CCCC(CCC)C(=O)[O-].[Na+]` [VALPROATE SODIUM], in the data set on Rattus norvegicus [19], the Activity turned out to be 258%.
Take `CC[C@H]1NC(=O)N(c2ccc(Oc3ccc(C#N)cc3C3CC3)nc2)C1=O`: in [5], the result was Active. For the same compound, in data set [20], the TIME turned out to be 3.61e-06 h.
As for `CCc1cc(Oc2ccc(N3C(=O)N[C@H](CC)C3=O)cn2)ccc1C#N`, the TIME in [20] is 2.28e-06 h.
As to `CC[C@H]1NC(=O)N(c2ccc(Oc3ccc(C#N)c(OC(C)C)c3)nc2)C1=O`, in data set [20], the TIME was determined as 2.69e-06 h.
For the compound `CC1(C)NC(=O)N(c2ccc(Oc3cccc4c3C3(CC3)CO4)nc2)C1=O`, the inhibition result in [1] was “Active”. Further, the TIME in data set [21] worked out at 5.36e-06 h.
`CC[C@H]1NC(=O)N(c2ccc(Oc3ccc(C#N)c(C(C)C)c3)nc2)C1=O`: the outcome in data set [5] was Active. Also, the TIME in data set [22] was found to be 2.56e-06 h.
Turning to `CC[C@@]1(C)NC(=O)N(c2ccc(Oc3ccc(C)c(OC)c3)nc2)C1=O`, the outcome (in the data set with Callithrix jacchus [23]; in data set [5]; with Callithrix jacchus [24]; in the data set with Callithrix jacchus [25]; in the data set with Callithrix jacchus [26]) was Active. The Activity entry in the data set with Callithrix jacchus [27] was “Non-Toxic”. For the same compound, the TIME in data set [28] was determined as 2.03e-06 h.
Turning to `CC[C@H]1NC(=O)N(c2ccc(Oc3ccc(C#N)c(C4CC4)c3)nc2)C1=O`, in data set [5], the result was Active. In addition, the TIME in data set [20] worked out at 2.11e-06 h.
As for `CC[C@H]1NC(=O)N(c2ccc(Oc3ccc(C#N)c(OC(F)(F)F)c3)nc2)C1=O`, in data set [20], the TIME came out at 2.89e-06 h.
